From patent US12173309B2, “Compounds for increasing genome editing efficiency” (Max-Planck-Gesellschaft zur Förderung der Wissenschaften …, priority 2017, dated 2024)
Entries after “also recorded” stand apart in the source; their conditions may differ.

Experiments:
[1] = test system: 409-B2 iCRISPR-Cas9D10A iPSCs; test: Precise genome editing (PGE) efficiency with iCRISPR Cas9D10A double nicking and ssODN donors, Illumina sequencing/CRISPResso; type: cell-based, human; details: for effect on PGE frequency over CALD1, KATNA1 and SLITRK1 compared to controls: 1 μM NSC 19630, 20 μM AICAR, 1 μM RS-1, 1 μM Resveratrol, 1 μM SCR7, 5 μM L755507, 5 μM STL127685, 20 μM B02; for PGE increase (mean change vs control): 20 μM NU7026, 0.01 μM TSA, 0.5 μM MLN4924, 5 μM NSC 15520, CRISPY mix = all four; for effect on PGE of further addition to the mix of NU7026, TSA and MLN4924: all loci, 5 μM NSC 15520, then 1 μM NSC 19630, 20 μM AICAR, 1 μM RS-1 (FIG. 5A); for effect on PGE efficiency with ssODN (discussion summary): nuclease not stated
Method: (§1) FIG. 1: Genome editing and analysis flowchart. iCRISPR 409-B2 iPSCs are treated with 2 μg/ml doxycycline at least for 2 days to induce Cas9 or Cas9D10A expression. Reverse transfection with RNAiMAX, gRNA (7.5 nM each), ssODN (10 nM) and the small molecules to be evaluated is carried out in a 96 well plate for 1 day. The amount of cells used gives ˜80% confluency. Cells are then expanded for 3 days with regular media change. After harvest follows DNA extraction, PCR amplification of targeted loci, Illumina sequencing and CRISPResso (Pinello et al. 2016) sequence analysis for amount of indels and precise genome editing.
(§2) Cells were incubated with media containing 2 μg/ml doxycycline (Clontech, 631311) 2 days prior to lipofection. Lipofection (reverse transfection) was done using the alt-CRISPR manufacturer's protocol (IDT) with a final concentration of 7.5 nM of each gRNA and 10 nM of the respective ssODN. In brief, 0.75 μl RNAiMAX (Invitrogen, 13778075) and the respective oligonucleotides were separately diluted in 25 μl OPTI-MEM (Gibco, 1985-062) each and incubated at room temperature for 5 min. Both dilutions were mixed to yield 50 μl of OPTI-MEM including RNAiMAX, gRNAs and ssODNs. The lipofection mix was incubated for 20-30 min at room temperature. During incubation cells were dissociated using EDTA for 5 min and counted using the Countess Automated Cell Counter (Invitrogen). The lipofection mix, 100 μl containing 25.000 dissociated cells in mTeSR1 supplemented with Y-27632, 2 μg/ml doxycycline and the respective small molecule(s) to be tested were throughoutly mixed and put in one well of a 96 well covered with Matrigel Matrix (Corning, 35248). Media was exchanged to regular mTeSR1 media after 24 hours.
(§3) Three days after lipofection cells were dissociated using Accutase (SIGMA, A6964), pelleted, and resuspended in 15 μl QuickExtract (Epicentre, QE0905T). Incubation at 65° C. for 10 min, 68° C. for 5 min and finally 98° C. for 5 min was performed to yield ssDNA as a PCR template. Primers for each targeted loci of CALD1, KATNA1 and SLITRK1 containing adapters for Illumina sequencing were ordered from IDT (Coralville, USA). PCR was done in a T100 Thermal Cycler (Bio-Rad) using the KAPA2G Robust PCR Kit (Peqlab, 07-KK5532-03) with supplied buffer B and 3 μl of cell extract in a total volume of 25 μl. The thermal cycling profile of the PCR was: 95° C. 3 min; 34×(95° 15 sec, 65° C. 15 sec, 72° C. 15 sec); 72° C. 60 sec. P5 and P7 Illumina adapters with sample specific indices were added in a second PCR reaction (Kircher et al. 2012) using Phusion HF MasterMix (Thermo Scientific, F-531L) and 0.3 μl of the first PCR product. The thermal cycling profile of the PCR was: 98° C. 30 sec; 25× (98° 10 sec, 58° C. 10 sec, 72° C. 20 sec); 72° C. 5 min. Amplifications were verified by size separating agarose gel electrophoresis using EX gels (Invitrogen, G4010-11). The indexed amplicons were purified using Solid Phase Reversible Immobilization (SPRI) beads (Meyer, Kircher 2010). Double-indexed libraries were sequenced on a MiSeq (Illumina) giving paired-end sequences of 2×150 bp. After base calling using Bustard (Illumina) adapters were trimmed using leeHom (Renaud et al. 2014).
(§4) CRISPresso (Pinello et al. 2016) was used to analyse sequencing data from CRISPR genome editing experiments for percentage of wildtype, targeted nucleotide substitutions (TNS), indels and mix of TNS and indels. Parameters used for analysis were ‘-w 20’, ‘--min_identity_score 70’ and ‘--ignore_substitutions’ (analysis was restricted to amplicons with a minimum of 70% similarity to the wildtype sequence and to a window of 20 bp from each gRNA; substitutions were ignored, as sequencing errors would be falsely characterized as NHEJ-events). Sequencing data from colonies after single cell seeding (FIGS. 3B and C) was further analyzed by evaluating the actual read sequences using SAMtools. Clonal colonies were differentiated from mixed colonies using sequence read proportions. […]

[2] = test system: 409-B2 iCRISPR-Cas9 iPSCs; test: PGE efficiency with iCRISPR Cas9 and ssODN donors; type: cell-based, human; details: 0.01 μM TSA, 0.5 μM MLN4924, 1 μM NSC 19630, 20 μM AICAR, 1 μM RS-1, 1 μM Resveratrol, 1 μM SCR7, 5 μM L755507, 5 μM STL127685, 20 μM B02
Method: as §1, §2, §3, §4

[3] = test system: 409-B2 iCRISPR Cas9D10A iPSCs; test: Cell death by phase contrast light microscopy in first concentration screen; type: cell-based, human
Description: FIGS. 3A-3D: First screen for solvent effect and influence of different small molecule concentrations on genome edit-ing of CALD1, KATNA1 and SLITRK1 with iCRISPR Cas9D10A. Shown are precise genome editing (PGE) and indels with green circles (triangles) or blue diamonds, respectively. Each symbol represents a technical replicate. The respective means are shown as a black line. Each skull indicates cell death of up to 20% determined by phase contrast light microscopy.

HEK293A cells = details: literature; RS-1 with dsODN donors, control 3.5%; cited from earlier work
mouse ESCs = details: literature; dsODN donors, control 17.7%; cited from earlier work
rabbit embryos = details: literature; RS-1 with dsODN donors, control 4.4%; cited from earlier work
U2OS cells = details: literature; dsODN donors, control 1.9%; cited from earlier work
[4] = test system: porcine fetal fibroblasts; details: literature; ssODN donors; cited from earlier work
human LIG4 = human LIG4 (Homo sapiens, UniProt P49917); details: literature (Greco et al. 2016); cited from earlier work
Chain of human LIG4 (P49917 whole entry): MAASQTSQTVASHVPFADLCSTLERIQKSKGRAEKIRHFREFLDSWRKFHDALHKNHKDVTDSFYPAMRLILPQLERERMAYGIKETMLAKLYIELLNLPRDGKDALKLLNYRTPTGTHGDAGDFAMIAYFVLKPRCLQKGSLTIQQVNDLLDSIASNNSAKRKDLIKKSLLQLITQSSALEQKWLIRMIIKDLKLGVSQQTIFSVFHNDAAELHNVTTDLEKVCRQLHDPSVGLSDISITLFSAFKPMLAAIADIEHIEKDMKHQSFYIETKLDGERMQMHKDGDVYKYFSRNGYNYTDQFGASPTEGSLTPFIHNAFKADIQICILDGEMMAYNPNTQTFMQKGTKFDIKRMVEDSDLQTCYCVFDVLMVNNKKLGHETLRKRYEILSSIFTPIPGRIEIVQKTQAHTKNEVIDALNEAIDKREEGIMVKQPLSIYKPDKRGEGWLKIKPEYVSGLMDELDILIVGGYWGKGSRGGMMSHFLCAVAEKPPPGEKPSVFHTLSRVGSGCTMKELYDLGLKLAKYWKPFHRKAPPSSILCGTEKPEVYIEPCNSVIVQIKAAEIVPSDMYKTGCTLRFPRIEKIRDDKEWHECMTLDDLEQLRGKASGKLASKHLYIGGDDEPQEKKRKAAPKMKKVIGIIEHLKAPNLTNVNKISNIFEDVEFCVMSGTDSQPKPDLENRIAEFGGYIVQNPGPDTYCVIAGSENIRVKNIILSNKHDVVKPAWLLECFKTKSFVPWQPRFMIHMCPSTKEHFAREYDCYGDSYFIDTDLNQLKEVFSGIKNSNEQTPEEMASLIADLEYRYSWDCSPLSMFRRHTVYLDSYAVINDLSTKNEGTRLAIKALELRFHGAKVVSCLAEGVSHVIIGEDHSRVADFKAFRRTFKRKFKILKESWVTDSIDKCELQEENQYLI
Chain of human LIG4 (Q13426 whole entry partner): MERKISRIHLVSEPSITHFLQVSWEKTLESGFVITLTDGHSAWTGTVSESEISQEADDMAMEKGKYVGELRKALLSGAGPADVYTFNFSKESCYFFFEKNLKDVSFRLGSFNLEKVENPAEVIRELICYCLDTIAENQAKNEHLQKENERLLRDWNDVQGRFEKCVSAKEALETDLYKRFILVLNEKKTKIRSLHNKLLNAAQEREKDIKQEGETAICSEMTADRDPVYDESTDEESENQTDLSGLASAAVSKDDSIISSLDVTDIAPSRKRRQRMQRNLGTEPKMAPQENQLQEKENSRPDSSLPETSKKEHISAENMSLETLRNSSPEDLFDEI

human stem cells = details: literature; cited from earlier work

Compound | effect on PGE frequency over CALD1, KATNA1 and SLITRK1 compared to controls ([1]; Cas9D10A) | effect on PGE frequency over CALD1, KATNA1 and SLITRK1 compared to controls [2] | PGE (HEK293A cells) | effect on PGE efficiency with ssODN (discussion summary) [1] | also measured
Oc1ccc(C=Cc2cc(O)cc(O)c2)cc1 [Resveratrol] | no clear effect | no effect or a diminishing effect | – | – | –
CC(/C=C/C(=O)NO)=C\[C@@H](C)C(=O)c1ccc(N(C)C)cc1 [TSA, Trichostatin A] | – | no enhancing effect | – | – | PGE increase (mean change vs control) ([1]; CALD1, Cas9D10A): 1.5 fold; higher PGE frequency than without the molecules ([1]; Cas9D10A, pooled across CALD1, KATNA1, SLITRK1 (FIG. 5A), p<0.001): 1.8 fold; PGE increase (mean change vs control) ([1]; KATNA1, Cas9D10A): 2.2 fold; PGE increase (mean change vs control) ([1]; SLITRK1, Cas9D10A): 1.8 fold; cell death ([3]; 0.1 μM): All cells died; cell death ([3]; 1 μM): All cells died
CCCCCCNC(=O)Nc1ccc(S(=O)(=O)Nc2ccc(CCNC[C@H](O)COc3ccc(O)cc3)cc2)cc1 [L755507] | no clear effect | no effect or a diminishing effect; also recorded: no clear effect | did not find significant stimulation | – | PGE (mouse ESCs): 33.3%
O=C(Nc1ccc(Br)cc1)c1ccc(Br)c(S(=O)(=O)NCc2ccccc2)c1 [RS-1] | no clear effect | no effect or a diminishing effect; also recorded: no clear effect | 21% | no beneficial effect | effect on PGE of further addition to the mix of NU7026, TSA and MLN4924 ([1]; Cas9D10A): no measurable effect; PGE (rabbit embryos): 26.1%; PGE (U2OS cells): 2.4%; effect on PGE efficiency [4]: No effect
NC(=O)c1ncn([C@@H]2O[C@H](CO)[C@@H](O)[C@H]2O)c1N [AICAR] | no clear effect | no effect or a diminishing effect | – | no effect | effect on PGE of further addition to the mix of NU7026, TSA and MLN4924 ([1]; Cas9D10A): no measurable effect
O=c1[nH]c(=S)[nH]c(N=Cc2ccccc2)c1N=Cc1ccccc1 [SCR7] | no clear effect | no effect or a diminishing effect; also recorded: no clear effect | marginal but significant increase | – | PGE (rabbit embryos): no significant effect; inhibition of human LIG4 (human LIG4): neither selective nor potent; effect on PGE (human stem cells): no significant effect
O=c1c2ccccc2nc(/C=C/c2cccnc2)n1Cc1ccccc1 [B02] | halved | halved | – | halved | –
